How the values were obtained:
[1] = tested on: velvetleaf; assay: Test A postemergence; assay type: in vivo, Abutilon theophrasti
How it was run: (§1)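 Seeds were sown in a loam soil–sand blend and given a directed soil spray preemergence; postemergence plants at 2–10 cm, one- to two-leaf stage, were sprayed with compound in non-phytotoxic solvent with surfactant. After about 10 days in a greenhouse, injury was visually rated against untreated controls (0 = no effect, 100 = complete control).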

[2] = tested on: wheat; assay: Test A postemergence; assay type: in vivo, Triticum aestivum
How it was run: as §1

[3] = tested on: foxtail, giant; assay: Test C preemergence; assay type: in vivo, Setaria faberii; conditions: for Foxtail, Giant plant response rating: preemergence
How it was run: (§2)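 In this greenhouse assay, seeded soil (loam plus sand) or emerged seedlings in peat-vermiculite medium were treated with formulated compound. Roughly two weeks later (13–15 days), each species was scored visually relative to controls, from 0 for no effect to 100 for complete control.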

[4] = tested on: foxtail, giant; assay: Test C postemergence; assay type: in vivo, Setaria faberii
How it was run: as §2

[5] = tested on: corn; assay: Test C preemergence; assay type: in vivo, Zea mays; conditions: for Corn plant response rating: preemergence
How it was run: as §2

[6] = tested on: corn; assay: Test A postemergence; assay type: in vivo, Zea mays
How it was run: as §1

[7] = tested on: foxtail, giant; assay: Test A postemergence; assay type: in vivo, Setaria faberii
How it was run: as §1

[8] = tested on: velvetleaf; assay: Test C postemergence; assay type: in vivo, Abutilon theophrasti
How it was run: as §2

[9] = tested on: galium; assay: Test C preemergence; assay type: in vivo, Galium aparine; conditions: for Galium plant response rating: preemergence
How it was run: as §2

[10] = tested on: galium; assay: Test C postemergence; assay type: in vivo, Galium aparine
How it was run: as §2

[11] = tested on: morningglory; assay: Test C postemergence; assay type: in vivo, Ipomoea coccinea
How it was run: as §2

[12] = tested on: soybean; assay: Test C preemergence; assay type: in vivo, Glycine max; conditions: for Soybean plant response rating: preemergence
How it was run: as §2

[13] = tested on: waterhemp; assay: Test C preemergence; assay type: in vivo, Amaranthus rudis; conditions: for Waterhemp plant response rating: preemergence
How it was run: as §2

[14] = tested on: kochia; assay: Test C postemergence; assay type: in vivo, Kochia scoparia
How it was run: as §2

[15] = tested on: wheat; assay: Test C postemergence; assay type: in vivo, Triticum aestivum
How it was run: as §2

[16] = tested on: barnyardgrass; assay: Test C postemergence; assay type: in vivo, Echinochloa crus-galli
How it was run: as §2

[17] = Postemergence, 500 g ai/ha, visual rating after approx. 10 days, 0 to 100 scale (0 no effect, 100 complete control)
[18] = postemergence, 125 g ai/ha, about 10 days, visual rating on 0 to 100 scale (0 no effect, 100 complete control)
[19] = 31 g ai/ha, visual rating, scale 0 to 100 (0 no effect, 100 complete control), 13 to 15 days
[20] = 62 g ai/ha, scale 0 to 100 (0 no effect, 100 complete control), 13 to 15 days
[21] = 125 g ai/ha, scale 0 to 100, 0 is no effect, 100 is complete control
[22] = Postemergence, 31 g ai/ha, visually evaluated after 13 to 15 days
[23] = postemergence, 62 g ai/ha, scale 0 to 100
[24] = postemergence, 250 g ai/ha, scale 0 to 100 (0 no effect, 100 complete control)
[25] = postemergence, 125 g ai/ha, scale 0 to 100, 0 no effect, 100 complete control

CCc1cc(C(=O)NCC(F)(F)F)nn1Cc1nc(C(F)(F)F)nn1C [Compound 107]
Velvetleaf plant response rating [1, 17]: 100
Velvetleaf plant response rating [1, 18]: 80
Wheat plant response rating [2, 17]: 80
Wheat plant response rating [2, 18]: 30
Plant response rating (scale of 0 to 100), Foxtail, Giant ([3]; Preemergence, 250 g ai/ha): 100
Foxtail, Giant plant response rating [3, 19]: 100
Foxtail, Giant plant response rating [3, 20]: 100
Foxtail, Giant plant response rating [3, 21]: 100
Plant response rating (scale of 0 to 100 where 0 is no effect and 100 is complete control), Foxtail, Giant [4, 22]: 10
Foxtail, Giant plant response rating [4, 23]: 15
Plant response rating, Foxtail, Giant [4, 24]: 60
Plant response rating, Foxtail, Giant [4, 25]: 55
Plant response rating (scale of 0 to 100), Corn ([5]; Preemergence, 250 g ai/ha): 95
Corn plant response rating [5, 19]: 30
Corn plant response rating [5, 20]: 45
Corn plant response rating [5, 21]: 90
Corn plant response rating [6, 17]: 90
Corn plant response rating [6, 18]: 50
Foxtail, Giant plant response rating [7, 17]: 90
Foxtail, Giant plant response rating [7, 18]: 70
Plant response rating (scale of 0 to 100 where 0 is no effect and 100 is complete control), Velvetleaf [8, 22]: 30
Velvetleaf plant response rating [8, 23]: 30
Plant response rating, Velvetleaf [8, 24]: 50
Plant response rating, Velvetleaf [8, 25]: 35
Plant response rating (scale of 0 to 100), Galium ([9]; Preemergence, 250 g ai/ha): 100
Galium plant response rating [9, 19]: 75
Galium plant response rating [9, 20]: 90
Galium plant response rating [9, 21]: 95
Plant response rating (scale of 0 to 100 where 0 is no effect and 100 is complete control), Galium [10, 22]: 50
Galium plant response rating [10, 23]: 85
Plant response rating, Galium [10, 24]: 90
Plant response rating, Galium [10, 25]: 90
Plant response rating (scale of 0 to 100 where 0 is no effect and 100 is complete control), Morningglory [11, 22]: 75
Morningglory plant response rating [11, 23]: 80
Plant response rating, Morningglory [11, 24]: 80
Plant response rating, Morningglory [11, 25]: 80
Plant response rating (scale of 0 to 100), Soybean ([12]; Preemergence, 250 g ai/ha): 95
Soybean plant response rating [12, 19]: 15
Soybean plant response rating [12, 20]: 95
Soybean plant response rating [12, 21]: 95
Plant response rating (scale of 0 to 100), Waterhemp ([13]; Preemergence, 250 g ai/ha): 100
Waterhemp plant response rating [13, 19]: 100
Waterhemp plant response rating [13, 20]: 100
Waterhemp plant response rating [13, 21]: 100
Plant response rating (scale of 0 to 100 where 0 is no effect and 100 is complete control), Kochia [14, 22]: 50
Kochia plant response rating [14, 23]: 85
Plant response rating, Kochia [14, 24]: 90
Plant response rating, Kochia [14, 25]: 85
Plant response rating (scale of 0 to 100 where 0 is no effect and 100 is complete control), Wheat [15, 22]: 0
Wheat plant response rating [15, 23]: 5
Plant response rating, Wheat [15, 24]: 30
Plant response rating, Wheat [15, 25]: 20
Plant response rating (scale of 0 to 100 where 0 is no effect and 100 is complete control), Barnyardgrass [16, 22]: 0
Barnyardgrass plant response rating [16, 23]: 0
Plant response rating, Barnyardgrass [16, 24]: 30
Plant response rating, Barnyardgrass [16, 25]: 5

From patent publication US20150105252A1, “SUBSTITUTED PYRAZOLES AS HERBICIDES” (E I DU PONT DE NEMOURS AND COMPANY, priority 2013, published 2015)
